Results as given in US9725442B2, “Heterocyclic derivative having PGD2 receptor antagonist activity” (Shionogi & Co., Ltd., priority 2011, dated 2017).
Read-outs that look alike come from different tables or passages of the source.

What was measured:
DP receptor = DP receptor (Homo sapiens (Human), UniProt Q13258); assay: DP inhibitory activity in human platelets (PGD2-induced cAMP increase in platelet rich plasma, HTRF); type: cell-based; conditions: IC50 of PGD2 (300 nM)-induced cAMP increase, read-out: PRP
Chain of DP receptor (Q13258 whole entry): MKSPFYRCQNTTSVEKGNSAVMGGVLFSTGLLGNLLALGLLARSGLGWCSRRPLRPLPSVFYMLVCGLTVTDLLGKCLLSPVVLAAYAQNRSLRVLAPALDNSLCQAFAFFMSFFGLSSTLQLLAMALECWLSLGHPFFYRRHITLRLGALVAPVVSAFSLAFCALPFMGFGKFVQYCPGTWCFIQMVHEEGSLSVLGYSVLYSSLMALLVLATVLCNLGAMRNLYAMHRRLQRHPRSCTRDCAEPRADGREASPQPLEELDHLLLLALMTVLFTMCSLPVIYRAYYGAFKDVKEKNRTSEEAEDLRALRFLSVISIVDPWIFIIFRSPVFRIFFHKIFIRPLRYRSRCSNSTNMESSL
Description: Thirty milliliter of blood was drown from healthy human into a syringe preloaded with 1/9 volume of 3.8% citrate sodium. The blood was centrifuged with 180 g for 10 min at room temperature and the upper plasma layer was collected as platelet rich plasma (PRP). The PRP was transferred to plate and treated with 3-isobutyl-1-methylxanthin (IBMX; […]) for 5 min. Then the compounds of the present invention were added to the plate and after 10 min, 300 nM of PGD2 was added. The reaction was stopped with 1 mmol/l hydrogenchlolide after 2 min of PGD2 addition, and platelet was lysed by adding 12% Triton X-100. The concentration of cAMP in the supernatant of the platelet lysate was quantified using homogenous time resolved fluorescence (HTRF). Inhibition ratio was defined by cAMP increase with and without compound, and […] for each compound was calculated from inhibitory curve.

Human DP1 receptor = Human DP1 receptor (Homo sapiens (Human), UniProt Q13258); assay: Human DP1 inhibitory activity in DP1-expressing cell (PGD2-induced cAMP); type: cell-based
Chain of Human DP1 receptor (Q13258 whole entry): as above
Description: Compounds were categorized as AA (cAMP is less than 100 nM) and A (cAMP is more than 100 nM and less than 5000 nM) as shown in Table 99 and 100.

CRTH2 = CRTH2 (Homo sapiens (Human), UniProt Q9Y5Y4); assay: CRTH2 receptor binding inhibitory activity ([3H]-PGD2 displacement, membranes of CRTH2-expressing K562 cell); conditions: [3H]-PGD2 displacement, membrane of CRTH2-expressing K562 cell, read-out: Ki
Chain of CRTH2 (Q9Y5Y4 whole entry): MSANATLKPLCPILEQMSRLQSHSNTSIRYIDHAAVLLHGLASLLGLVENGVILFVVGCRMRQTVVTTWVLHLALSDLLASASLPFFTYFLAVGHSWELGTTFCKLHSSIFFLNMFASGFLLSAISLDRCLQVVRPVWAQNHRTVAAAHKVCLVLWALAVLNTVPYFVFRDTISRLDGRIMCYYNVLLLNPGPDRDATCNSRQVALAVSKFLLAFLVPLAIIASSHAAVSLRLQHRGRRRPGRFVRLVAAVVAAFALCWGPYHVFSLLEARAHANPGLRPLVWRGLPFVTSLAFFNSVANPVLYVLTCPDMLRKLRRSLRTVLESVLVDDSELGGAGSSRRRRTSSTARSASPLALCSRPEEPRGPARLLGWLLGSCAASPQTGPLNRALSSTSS
In short: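 Incubation ran 60 min at room temperature using 20 μg/well membrane from CRTH2-expressing K562 cells in pH 7.4 Tris/HCl (50 mM) with 10 mM MgCl2.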

[1] = IC50 of PGD2 (60 nM)-induced cAMP increase, human DP1 receptor expressing Jurkut cell
[2] = category of cAMP IC50, human DP1 receptor expressing Jurkut cell
[3] = CRTH2 receptor binding, categorized AAAA/AAA

| IC50 (DP receptor) | IC50 (Human DP1 receptor; [1]) | IC50 (Human DP1 receptor; [2]) | Ki (CRTH2; [3]) | Ki (CRTH2) | SMILES |
| --- | --- | --- | --- | --- | --- |
| 180 nM | 59 nM | < 100 nM | < 100 nM | 10 nM | CC(C)Oc1ccc(S(=O)(=O)N2C[C@H](n3nc(CC(=O)O)c4ccc(F)cc43)C[C@@H]2Cn2cccn2)cc1 [Compound I-21] |
| 41 nM | 20 nM | < 100 nM | < 100 nM | 99 nM | CCOc1ccc(S(=O)(=O)N2C[C@@H](C)[C@@H](n3nc(CC(=O)O)c4c(F)cccc43)C2)cc1 [Compound I-150] |
| 110 nM | 3 nM | < 100 nM | 100 to 5000 nM |  | CC(C)Oc1ccc(S(=O)(=O)N2C[C@@H](C)[C@H](n3nc(CC(=O)O)c4cc(Br)c(F)cc43)C2)cc1 [Compound I-156] |
| 68 nM | 140 nM | 100 to 5000 nM | 100 to 5000 nM |  | CCOc1ccc(S(=O)(=O)N2C[C@@H](C)[C@@H](n3nc(CC(=O)O)c4cc(C#N)ccc43)C2)cn1 [Compound I-159] |
| 55 nM | 32 nM | < 100 nM | < 100 nM | 12 nM | CCOc1ncc(S(=O)(=O)N2C[C@@H](C)[C@@H](n3nc(CC(=O)O)c4ccc(F)cc43)C2)s1 [Compound I-166] |
| 140 nM | 95 nM | < 100 nM | 100 to 5000 nM | 100 nM | CCOc1ccc(S(=O)(=O)N2C[C@@H](C)[C@@H](n3nc(CC(=O)O)c4ccc(N5CCCC5)cc43)C2)cn1 [Compound I-222] |
| 130 nM | 50 nM | < 100 nM | < 100 nM | 55 nM | CCOc1ccc(S(=O)(=O)N2C[C@@H](C)[C@@H](n3nc(C(C)C(=O)O)c4ccccc43)C2)cc1 (stereo partly drawn) [Compound I-284] |
| 12 nM | 29 nM | < 100 nM | 100 to 5000 nM | 270 nM | CCOc1ccc(S(=O)(=O)N2C[C@H](n3nc(CC(=O)O)c4ccccc43)C[C@@H]2C#N)cc1 [Compound I-322] |
|  |  | < 100 nM | 100 to 5000 nM |  | COc1ccccc1OC[C@H]1C[C@@H](n2nc(CC(=O)O)c3ccc(F)cc32)CN1S(=O)(=O)c1ccc(OC(C)C)cc1 [Compound I-344] |
|  |  | 100 to 5000 nM | 100 to 5000 nM |  | CC(C)Oc1ccc(S(=O)(=O)N2C[C@H](n3nc(CC(=O)O)c4ccc(F)cc43)CC2c2cccnc2)cc1 (stereo partly drawn) [Compound I-345] |
|  |  | < 100 nM | 100 to 5000 nM |  | CC(C)Oc1ccc(S(=O)(=O)N2C[C@H](n3nc(CC(=O)O)c4ccc(F)cc43)C[C@@H]2COc2ccc(O)cc2)cc1 [Compound I-347] |
|  |  | < 100 nM | 100 to 5000 nM |  | CC(C)Oc1ccc(S(=O)(=O)N2C[C@H](n3nc(CC(=O)O)c4ccccc43)C[C@@H]2Cc2ccccc2)cc1 [Compound I-349] |
|  |  | 100 to 5000 nM | < 100 nM |  | CC(C)Oc1ccc(S(=O)(=O)N2C[C@H](n3nc(CC(=O)O)c4ccc(F)cc43)C[C@H]2c2ccccn2)cc1 [Compound I-350] |
| 37 nM | 120 nM | 100 to 5000 nM | 100 to 5000 nM | 400 nM | CCOc1ccc(S(=O)(=O)N2C[C@H](n3nc(CC(=O)O)c4ccccc43)CC23COC3)cc1 [Compound I-353] |
|  |  | < 100 nM | 100 to 5000 nM |  | CSC[C@H]1C[C@@H](n2nc(CC(=O)O)c3ccc(F)cc32)CN1S(=O)(=O)c1ccc(OC(C)C)cc1 [Compound I-354] |
|  |  | 100 to 5000 nM | 100 to 5000 nM |  | CC(C)Oc1ccc(S(=O)(=O)N2C[C@H](n3nc(CC(=O)O)c4ccc(F)cc43)C[C@@H]2c2ccccn2)cc1 [Compound I-358] |
|  |  | < 100 nM | < 100 nM | 30 nM | CC(C)Oc1ccc(S(=O)(=O)N2C[C@H](n3nc(CC(=O)O)c4ccc(F)cc43)C[C@@H]2c2ccccc2)cc1 [Compound I-360] |
|  |  | 100 to 5000 nM | 100 to 5000 nM |  | CC(C)Oc1ccc(S(=O)(=O)N2C[C@H](n3nc(CC(=O)O)c4ccc(F)cc43)C[C@H]2c2ccncc2)cc1 [Compound I-362] |
|  |  | 100 to 5000 nM | 100 to 5000 nM | 170 nM | CC(C)Oc1ccc(S(=O)(=O)N2C[C@H](n3nc(CC(=O)O)c4ccc(F)cc43)C[C@@H]2c2ncc[nH]2)cc1 [Compound I-363] |
|  |  | 100 to 5000 nM | 100 to 5000 nM |  | Cc1noc([C@H]2C[C@@H](n3nc(CC(=O)O)c4ccc(F)cc43)CN2S(=O)(=O)c2ccc(OC(C)C)cc2)n1 [Compound I-364] |
|  |  | < 100 nM | 100 to 5000 nM |  | CC(C)Oc1ccc(S(=O)(=O)N2C[C@H](n3nc(CC(=O)O)c4ccc(F)cc43)C[C@@H]2COc2ccccc2)cc1 [Compound I-365] |

Further lines, the compound ahead of its results:

| SMILES | IC50 (DP receptor) | IC50 (Human DP1 receptor; [1]) | IC50 (Human DP1 receptor; [2]) | Ki (CRTH2; [3]) | Ki (CRTH2) |
| --- | --- | --- | --- | --- | --- |
| CO/N=C/[C@H]1C[C@@H](n2nc(CC(=O)O)c3ccc(F)cc32)CN1S(=O)(=O)c1ccc(OC(C)C)cc1 [Compound I-19] | 260 nM | 56 nM | < 100 nM | < 100 nM | 62 nM |
| C[C@@H]1CN(S(=O)(=O)c2ccc(OC(F)(F)F)cc2)C[C@@H]1n1nc(CC(=O)O)c2ccc(Cl)cc21 [Compound I-142] | 92 nM | 9.9 nM | < 100 nM | < 100 nM | 11 nM |
| CC(C)Oc1ccc(S(=O)(=O)N2C[C@@H](C)[C@@H](n3cc(CC(=O)O)c4ccc(F)cc43)C2)cc1 [Compound I-144] | 82 nM | 4.7 nM | < 100 nM | < 100 nM | 3.1 nM |
| CCOc1ccc(S(=O)(=O)N2C[C@@H](C)[C@@H](n3nc(CC(=O)O)c4ccccc43)C2)s1 [Compound I-177] | 44 nM | 58 nM | < 100 nM | < 100 nM | 15 nM |
| CCOc1ccc(S(=O)(=O)N2C[C@@H](C)[C@@H](n3nc(CC(=O)O)c4c(C)cccc43)C2)cc1 [Compound I-205] | 70 nM | 13 nM | < 100 nM | 100 to 5000 nM |  |
| CCOc1ccc(S(=O)(=O)N2C[C@@H](C)[C@@H](n3nc(CC(=O)O)c4ccccc43)C2)c(F)c1 [Compound I-245] | 68 nM | 27 nM | < 100 nM | < 100 nM |  |
| CCOc1ccc(S(=O)(=O)N2C[C@@H](C)[C@@H](n3nc(CC(=O)O)c4ccccc43)C2)c(N)c1 [Compound I-325] | 210 nM | 24 nM | < 100 nM | < 100 nM | 28 nM |
| CCOc1ccc(S(=O)(=O)N2C[C@@H](C)[C@@H](n3nc(C4(C(=O)O)CC4)c4ccccc43)C2)cc1 [Compound I-336] | 180 nM | 35 nM | < 100 nM | 100 to 5000 nM | 440 nM |
| CC(C)Oc1ccc(S(=O)(=O)N2C[C@H](n3nc(CC(=O)O)c4ccc(F)cc43)C[C@@H]2CCc2ccccc2)cc1 [Compound I-343] |  |  | < 100 nM | < 100 nM |  |
| CC(C)Oc1ccc(S(=O)(=O)N2C[C@H](n3nc(CC(=O)O)c4ccc(F)cc43)C[C@@H]2COc2cccc(O)c2)cc1 [Compound I-346] |  |  | < 100 nM | < 100 nM |  |
| CC(C)Oc1ccc(S(=O)(=O)N2C[C@H](n3nc(CC(=O)O)c4ccc(F)cc43)C[C@@H]2Cc2ccccc2)cc1 [Compound I-348] |  |  | < 100 nM | < 100 nM |  |
| CC(C)Oc1ccc(S(=O)(=O)N2C[C@H](n3nc(CC(=O)O)c4ccc(F)cc43)C[C@@H]2c2ccccn2)cc1 [Compound I-351] |  |  | 100 to 5000 nM | 100 to 5000 nM |  |
| CCOc1ccc(S(=O)(=O)N2C[C@H](n3nc(CC(=O)O)c4ccccc43)C[C@@H]2CC2COC2)cc1 [Compound I-352] |  |  | 100 to 5000 nM | 100 to 5000 nM |  |
| CC(C)Oc1ccc(S(=O)(=O)N2C[C@H](n3nc(CC(=O)O)c4ccc(F)cc43)C[C@@H]2CS(C)(=O)=O)cc1 [Compound I-355] |  |  | 100 to 5000 nM | 100 to 5000 nM |  |
| CCOc1ccc(S(=O)(=O)N2C[C@H](n3nc(CC(=O)O)c4ccccc43)C(C)(C)C2)cc1 [Compound I-356] |  |  | 100 to 5000 nM | < 100 nM |  |
| CC(C)Oc1ccc(S(=O)(=O)N2C[C@H](n3nc(CC(=O)O)c4ccc(F)cc43)C[C@H]2c2ccccn2)cc1 [Compound I-357] |  |  | 100 to 5000 nM | 100 to 5000 nM |  |
| CC(C)Oc1ccc(S(=O)(=O)N2C[C@H](n3nc(CC(=O)O)c4ccc(F)cc43)C[C@H]2c2ccccc2)cc1 [Compound I-359] |  |  | 100 to 5000 nM | < 100 nM |  |
| CC(C)Oc1ccc(S(=O)(=O)N2C[C@H](n3nc(CC(=O)O)c4ccc(F)cc43)C[C@@H]2c2ccncc2)cc1 [Compound I-361] |  |  | 100 to 5000 nM | 100 to 5000 nM |  |
| CC(C)Oc1ccc(S(=O)(=O)N2C[C@H](n3nc(CC(=O)O)c4ccc(F)cc43)C[C@@H]2COc2ccc(F)cc2)cc1 [Compound I-366] |  |  | < 100 nM | 100 to 5000 nM |  |
